Data reported in ChEMBL document CHEMBL3124761, “Synthesis and biological evaluation of N,N'-squaramides with high in vivo efficacy and low toxicity: toward a low-cost drug against Chagas disease” (J Med Chem, 2014).
Active and inactive are the calls of the source. The rule behind the calls is not given here.

Tests used:
[1] = Selectivity index, ratio of IC50 for African green monkey Vero cells to IC50 for epimastigote stage of Trypanosoma cruzi IRHOD/CO/2008/SN3; type: toxicity, cell-based; settings: read-out: Ratio IC50
Vero = assay: Cytotoxicity against African green monkey Vero cells assessed as cell viability after 72 hrs by propidium iodide/fluorescein diacetate staining-based flow cytometric analysis; settings: Chlorocebus sabaeus
Trypanosoma cruzi [2] = assay: Antitrypanosomal activity against amastigote stage of Trypanosoma cruzi IRHOD/CO/2008/SN3 infected in African green monkey Vero cells assessed as parasite growth inhibition after 72 hrs by Giemsa staining-based microscopic analysis; type: functional, organism-based; settings: IRHOD/CO/2008/SN3, Vero
[3] = Selectivity index, ratio of IC50 for African green monkey Vero cells to IC50 for amastigote stage of Trypanosoma cruzi IRHOD/CO/2008/SN3 infected in African green monkey Vero cells; type: toxicity, cell-based; settings: read-out: Ratio IC50
Trypanosoma cruzi [4] = assay: Antitrypanosomal activity against epimastigote stage of Trypanosoma cruzi IRHOD/CO/2008/SN3 assessed as parasite growth inhibition after 72 hrs by Neubauer hemocytometric chamber analysis; type: functional, organism-based; settings: IRHOD/CO/2008/SN3, 72 h
Mus musculus [5] = assay: Toxicity in BALB/c albino mouse infected with blood trypomastigote stage of Trypanosoma cruzi assessed as change in alkaline phosphatase level in serum at 25 mg/kg, ip administered on day 7 to 12 post-infection measured after day 120 relative to control; type: organism-based; design: dose 25 mg/kg, route intraperitoneal; settings: in vivo
Trypanosoma cruzi [6] = assay: Antitrypanosomal activity against epimastigote stage of Trypanosoma cruzi IRHOD/CO/2008/SN3 assessed as formation of electron-dense vacuoles at IC25 after 72 hrs by TEM analysis; type: functional, organism-based
Mus musculus [7] = assay: Toxicity in BALB/c albino mouse assessed as mortality at 25 mg/kg, ip administered for 5 days; type: organism-based; design: dose 25 mg/kg, route intraperitoneal; settings: in vivo, 120 h
Trypanosoma cruzi [8] = assay: Antitrypanosomal activity against epimastigote stage of Trypanosoma cruzi IRHOD/CO/2008/SN3 assessed as change in excreted alanine level at IC25 after 96 hrs by 1H NMR analysis relative to control; type: functional
Trypanosoma cruzi [9] = assay: Trypanocidal activity against metacyclic trypomastigote stage of Trypanosoma cruzi infected in BALB/c albino mouse acute chagas disease model assessed as reduction of parasite burden at 25 mg/kg, ip administered on day 7 to 12 post-infection measured on day 14 by ELISA; type: functional, organism-based; design: dose 25 mg/kg
Trypanosoma cruzi [10] = assay: Antitrypanosomal activity against epimastigote stage of Trypanosoma cruzi IRHOD/CO/2008/SN3 assessed as discontinuation of parasite outer membrane at IC25 after 72 hrs by TEM analysis; type: functional, organism-based
Trypanosoma cruzi [11] = assay: Antitrypanosomal activity against epimastigote stage of Trypanosoma cruzi IRHOD/CO/2008/SN3 assessed as change in excreted lactate level at IC25 after 96 hrs by 1H NMR analysis relative to control; type: functional
Trypanosoma cruzi [12] = assay: Antitrypanosomal activity against epimastigote stage of Trypanosoma cruzi IRHOD/CO/2008/SN3 assessed as disappearance of microtubular structure at IC25 after 72 hrs by TEM analysis; type: functional, organism-based
Trypanosoma cruzi [13] = assay: Trypanocidal activity against metacyclic trypomastigote stage of Trypanosoma cruzi infected in BALB/c albino mouse acute chagas disease model assessed as inhibition of parasitemia at 25 mg/kg, ip administered on day 7 to 12 post-infection measured every 2 days until day 40 […] relative to control; type: functional; settings: route intraperitoneal
Trypanosoma cruzi [14] = assay: Antitrypanosomal activity against epimastigote stage of Trypanosoma cruzi IRHOD/CO/2008/SN3 assessed as mitochondrial swelling with rupture of membrane at IC25 after 72 hrs by TEM analysis; type: functional, organism-based
Mus musculus [15] = assay: Toxicity in BALB/c albino mouse infected with blood trypomastigote stage of Trypanosoma cruzi assessed as change in creatinephophokinase-MB level in serum at 25 mg/kg, ip administered on day 7 to 12 post-infection measured after day 120 relative to control; type: organism-based; design: dose 25 mg/kg, route intraperitoneal; settings: in vivo
Trypanosoma cruzi [16] = assay: Antitrypanosomal activity against epimastigote stage of Trypanosoma cruzi IRHOD/CO/2008/SN3 assessed as change in excreted pyruvate level at IC25 after 96 hrs by 1H NMR analysis relative to control; type: functional
Trypanosoma cruzi [17] = assay: Antitrypanosomal activity against epimastigote stage of Trypanosoma cruzi IRHOD/CO/2008/SN3 assessed as partially scalloped parasite outer membrane at IC25 after 72 hrs by TEM analysis; type: functional, organism-based
Trypanosoma cruzi [18] = assay: Antitrypanosomal activity against trypomastigote stage of Trypanosoma cruzi IRHOD/CO/2008/SN3 assessed as reduction of trypomastigote number per mililiter of culture medium at IC25 preincubated for 12 hrs followed by compound washout measured every 48 hrs for 10 days by Neubauer hemocytometric chamber analysis relative to control; type: functional
Trypanosoma cruzi [19] = assay: Antitrypanosomal activity against amastigote stage of Trypanosoma cruzi IRHOD/CO/2008/SN3 infected in African green monkey Vero cells assessed as decrease in infection rate at IC25 preincubated for 12 hrs followed by compound washout measured every 48 hrs for 10 days by Neubauer hemocytometric chamber analysis relative to control; type: functional
Mus musculus [20] = assay: Toxicity in BALB/c albino mouse infected with blood trypomastigote stage of Trypanosoma cruzi assessed as change in ALT/GPT level in serum at 25 mg/kg, ip administered on day 7 to 12 post-infection measured after day 120 relative to control; type: organism-based; design: dose 25 mg/kg, route intraperitoneal; settings: in vivo
Mus musculus [21] = assay: Toxicity in BALB/c albino mouse infected with blood trypomastigote stage of Trypanosoma cruzi assessed as increase in AST/GOT level in serum at 25 mg/kg, ip administered on day 7 to 12 post-infection measured after day 120 relative to control; type: organism-based; design: dose 25 mg/kg, route intraperitoneal; settings: in vivo
Trypanosoma cruzi [22] = assay: Antitrypanosomal activity against epimastigote stage of Trypanosoma cruzi IRHOD/CO/2008/SN3 assessed as change in excreted succinate level at IC25 after 96 hrs by 1H NMR analysis relative to control; type: functional
Mus musculus [23] = assay: Toxicity in BALB/c albino mouse infected with blood trypomastigote stage of Trypanosoma cruzi assessed as increase in total bilirubin level in serum at 25 mg/kg, ip administered on day 7 to 12 post-infection measured after day 120 relative to control; type: organism-based; design: dose 25 mg/kg, route intraperitoneal; settings: in vivo
Trypanosoma cruzi [24] = assay: Antitrypanosomal activity against amastigote stage of Trypanosoma cruzi IRHOD/CO/2008/SN3 infected in African green monkey Vero cells assessed as reduction of amastigote number per cell at IC25 preincubated for 12 hrs followed by compound washout measured every 48 hrs for 10 days by Neubauer hemocytometric chamber analysis relative to control; type: functional
Mus musculus [25] = assay: Toxicity in BALB/c albino mouse infected with blood trypomastigote stage of Trypanosoma cruzi assessed as change in urea level in serum at 25 mg/kg, ip administered on day 7 to 12 post-infection measured after day 120 relative to control; type: organism-based; design: dose 25 mg/kg, route intraperitoneal; settings: in vivo
Mus musculus [26] = assay: Toxicity in BALB/c albino mouse infected with blood trypomastigote stage of Trypanosoma cruzi assessed as increase in uric acid level in serum at 25 mg/kg, ip administered on day 7 to 12 post-infection measured after day 120 relative to control; type: organism-based; design: dose 25 mg/kg, route intraperitoneal; settings: in vivo
Mus musculus [27] = assay: Toxicity in BALB/c albino mouse infected with blood trypomastigote stage of Trypanosoma cruzi assessed as increase in LDH level in serum at 25 mg/kg, ip administered on day 7 to 12 post-infection measured after day 120 relative to control; type: organism-based; design: dose 25 mg/kg, route intraperitoneal; settings: in vivo
Trypanosoma cruzi [28] = assay: Antitrypanosomal activity against epimastigote stage of Trypanosoma cruzi IRHOD/CO/2008/SN3 assessed as change in excreted acetate level at IC25 after 96 hrs by 1H NMR analysis relative to control; type: functional

## CN1CCCNc2c(c(=O)c2=O)NCCCN(C)CCCNc2c(c(=O)c2=O)NCCC1
[1]
  selectivity ratio: 5.1
Vero
  IC50: 111 µM
Trypanosoma cruzi [2]
  IC50: 31.2 µM
[3]
  selectivity ratio: 3.5
Trypanosoma cruzi [4]
  IC50: 21.8 µM

## CN(C)c1ccc(Nc2c(O)c(=O)c2=O)cc1
[1]
  selectivity ratio: 0.8
Vero
  IC50: 12.9 µM
Trypanosoma cruzi [2]
  IC50: 10.1 µM
[3]
  selectivity ratio: 1.3
Trypanosoma cruzi [4]
  IC50: 15.9 µM

## CCCCNc1c(NCC[N+](C)(C)C)c(=O)c1=O
[1]
  selectivity ratio: 0.5
Vero
  IC50: 57.6 µM
Trypanosoma cruzi [2]
  IC50: 38.5 µM
[3]
  selectivity ratio: 1.5
Trypanosoma cruzi [4]
  IC50: 107 µM

## O=c1c(NCc2ccccc2)c(NC2CCN(Cc3ccccc3)CC2)c1=O
[1]
  selectivity ratio: 3.5
Vero
  IC50: 338 µM
Trypanosoma cruzi [2]
  IC50: 34.7 µM
[3]
  selectivity ratio: 9.7
Trypanosoma cruzi [4]
  IC50: 96.9 µM

## CCCCNc1c(NCCCC(=O)O)c(=O)c1=O
[1]
  selectivity ratio: 1.2
Vero
  IC50: 21.6 µM
Trypanosoma cruzi [2]
  IC50: 66.9 µM
[3]
  selectivity ratio: 0.3
Trypanosoma cruzi [4]
  IC50: 17.3 µM

## CN(C)CCCNc1c(NCCCNc2c(NCCCN(C)C)c(=O)c2=O)c(=O)c1=O
[1]
  selectivity ratio: 0.1
Vero
  IC50: 11.4 µM
Trypanosoma cruzi [2]
  IC50: 46 µM
[3]
  selectivity ratio: 0.2
Trypanosoma cruzi [4]
  IC50: 96.2 µM

## O=c1c(O)c(Nc2ccccc2O)c1=O
[1]
  selectivity ratio: 4.5
Vero
  IC50: 228 µM
Trypanosoma cruzi [2]
  IC50: 44 µM
[3]
  selectivity ratio: 5.2
Trypanosoma cruzi [4]
  IC50: 50.8 µM

## NCc1ccc(Nc2c(O)c(=O)c2=O)cc1
[1]
  selectivity ratio: 0.4
Vero
  IC50: 36.6 µM
Trypanosoma cruzi [2]
  IC50: 72.6 µM
[3]
  selectivity ratio: 0.5
Trypanosoma cruzi [4]
  IC50: 89.1 µM

## CCCCNc1c(NCCN(C)C)c(=O)c1=O
Mus musculus [5]
  Activity: < 10%
[1]
  selectivity ratio: 24.8
Trypanosoma cruzi [6]
  Activity: Active
Mus musculus [7]
  Activity: Non-toxic
Trypanosoma cruzi [8]
  Activity: -11.1%
Trypanosoma cruzi [9]
  Activity: Active
Trypanosoma cruzi [10]
  Activity: Active
Vero
  IC50: 260 µM
Trypanosoma cruzi [11]
  Activity: -23.9%
Trypanosoma cruzi [2]
  IC50: 9.3 µM
Trypanosoma cruzi [12]
  Activity: Active
Trypanosoma cruzi [13]
  inhibition in vivo at 25 mg/kg: 31%
Trypanosoma cruzi [14]
  Activity: Active
Mus musculus [15]
  Activity: < 10%
Trypanosoma cruzi [16]
  Activity: -11.1%
[3]
  selectivity ratio: 28
Trypanosoma cruzi [4]
  IC50: 10.5 µM
Trypanosoma cruzi [17]
  Activity: Active
Trypanosoma cruzi [18]
  inhibition (INH): 18%
Trypanosoma cruzi [19]
  inhibition (INH): 35%
Mus musculus [20]
  Activity: < 10%
Mus musculus [21]
  Activity: 40%
Trypanosoma cruzi [22]
  Activity: -28.3%
Mus musculus [23]
  Activity: 40%
Trypanosoma cruzi [24]
  inhibition (INH): 35%
Mus musculus [25]
  Activity: < 10%
Mus musculus [26]
  Activity: 30%
Mus musculus [27]
  Activity: 40%
Trypanosoma cruzi [28]
  Activity: -18.6%

## CCCCCCCCCCCCCCCCNc1c(NCCN(C)C)c(=O)c1=O
[1]
  selectivity ratio: 1.8
Vero
  IC50: 90.1 µM
Trypanosoma cruzi [2]
  IC50: 22.4 µM
[3]
  selectivity ratio: 3.4
Trypanosoma cruzi [4]
  IC50: 49.8 µM

## CCCCNc1c(NCC(=O)O)c(=O)c1=O
[1]
  selectivity ratio: 1.5
Vero
  IC50: 54.8 µM
Trypanosoma cruzi [2]
  IC50: 23.8 µM
[3]
  selectivity ratio: 2.3
Trypanosoma cruzi [4]
  IC50: 35.7 µM

## C[N+](C)(C)CCNc1c(NCc2ccccc2)c(=O)c1=O
[1]
  selectivity ratio: 1.2
Vero
  IC50: 74.2 µM
Trypanosoma cruzi [2]
  IC50: 39.2 µM
[3]
  selectivity ratio: 1.9
Trypanosoma cruzi [4]
  IC50: 60.8 µM

## C[N+](C)(C)CCNc1c(NCc2cccc(CNc3c(NCC[N+](C)(C)C)c(=O)c3=O)c2)c(=O)c1=O
[1]
  selectivity ratio: 0.6
Vero
  IC50: 73.1 µM
Trypanosoma cruzi [2]
  IC50: 43.9 µM
[3]
  selectivity ratio: 1.7
Trypanosoma cruzi [4]
  IC50: 119 µM

## CCOC(=O)c1ccc(Nc2c(O)c(=O)c2=O)cc1
[1]
  selectivity ratio: 0.8
Vero
  IC50: 21.5 µM
Trypanosoma cruzi [2]
  IC50: 18.4 µM
[3]
  selectivity ratio: 1.2
Trypanosoma cruzi [4]
  IC50: 26.3 µM

## CCCCCCCCCCCCCCCCNc1c(NCC[N+](C)(C)C)c(=O)c1=O
[1]
  selectivity ratio: 3.4
Vero
  IC50: 151 µM
Trypanosoma cruzi [2]
  IC50: 26.3 µM
[3]
  selectivity ratio: 5.7
Trypanosoma cruzi [4]
  IC50: 44.9 µM

## O=C(Cn1ccnc1[N+](=O)[O-])NCc1ccccc1 [BENZNIDAZOLE]
Trypanosoma cruzi [9]
  Activity: Active
Trypanosoma cruzi [13]
  inhibition in vivo at 25 mg/kg: 26%
Trypanosoma cruzi [18]
  inhibition (INH): 21%
Trypanosoma cruzi [19]
  inhibition (INH): 20%
Trypanosoma cruzi [24]
  inhibition (INH): 15%
